Measurements reported in publication PMC9101642 (Molecules, 2022).
Marks after values point to notes of the source that are not given here.

What was measured:
[1] = Liver oxidative stress markers after treatment of MNU-induced rats; type: in vivo, Wistar rats; conditions: liver; for CAT: catalase activity; for GSH: reduced glutathione; for SOD (U/mg): superoxide dismutase activity; for TP: total protein content
Summary of the method: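 Mammary tumours induced in rats by MNU 50 mg/kg i.p. at day 50; after two weeks, compounds given orally at 5 or 50 mg/kg once daily for six weeks. Serum AST, ALT (340 nm), ALP (405 nm) and bilirubin measured; liver homogenate GSH, CAT, MDA by colorimetry; plasma binding by ultrafiltration at 37°C with BCA protein read-out.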

[2] = Plasma protein binding determination; type: in vitro ADME, rat; conditions: rat plasma, 37 °C, read-out: Rat PPB (%free)
Experimental: Rats were housed at 3 per cage and
The breast cancer was induced after the MNU (Sigma Aldrich CAS No. 684-93-5) administration. An aqueous solution at a concentration of 10 mg/ml was made by wetting the NMU powder with 3% acetic acid and then dissolving it in 0.9% NaCl solution; a fresh solution was prepared for each injection. Rats were given intraperitoneal (i.p.) 50 mg/kg of MNU on the 50th day of age. Animals were divided into different groups with six animals in each group. Group I (intact control) received 0.9% NaCl solution.
Groups II-IV and V-VII were introduced with MNU. Two weeks after MNU treatment, animals were treated orally with synthesized compounds and control substances (5 and 50 mg/kg, for groups II-IV and V-VII, respectively) by gavage once per day for six weeks. Animals in the intact control group and untreated MNU group were given vehicle (Tween 80) according to the experimental protocol. […]
Upon finishing the treatment with synthesized compounds, animals were sacrificed, and plasma, serum, and liver samples were collected. […]
Rat plasma containing either 5 or 50 mg/kg bwt of the tested compounds was incubated at 37°C upper reservoir of the washed Centri-free YM-30 ultrafiltration units (Millipore, Bedford, MA) and then centrifuged for 20 min at 2,000 g. Aliquots of the ultrafiltrates and unfiltered incubation mixtures were analyzed for the total protein concentration by the bicinchoninic acid assay for protein concentration (BCA assay; Pierce, Rockford, IL).

[3] = test system: p53 promoter activity (p21 promoter); experiment: qChIP of ERα-p53 interaction on the p21 promoter in MCF-7; type: cell-based, human
[4] = test system: Ishikawa endometrial adenocarcinoma cells; experiment: Antiproliferative assay; type: cell-based; conditions: Homo sapiens, growth inhibition
[5] = rat, in vivo
MCF-7 cell lines = experiment: MTT antiproliferative assay; type: cell-based, human; conditions: for IC50: Homo sapiens, MCF7, growth inhibition, 48 h, read-out: MCF-7 (IC50 nM); for MCF-7 antiproliferative potency, fold higher than Ral: ratio of IC50 values; for SI: selectivity index [IC50(MDA-MB-231)]/[IC50(MCF-7)]
[6] = MTT antiproliferative assay (neutral control); conditions: human
[7] = test system: MNU-induced breast cancer; experiment: In vivo anticancer screening, MNU-induced mammary tumorigenesis; parameters: species or system female Wistar rats
ERα = target: T1, ERα (Homo sapiens, UniProt P03372); experiment: ERα down-regulation immunofluorescence assay in MCF-7; type: cell-based; conditions: ERα downregulation measured in MCF-7; read-out: MCF-7 DR (IC50 nM)
T1 sequence (P03372 1-595): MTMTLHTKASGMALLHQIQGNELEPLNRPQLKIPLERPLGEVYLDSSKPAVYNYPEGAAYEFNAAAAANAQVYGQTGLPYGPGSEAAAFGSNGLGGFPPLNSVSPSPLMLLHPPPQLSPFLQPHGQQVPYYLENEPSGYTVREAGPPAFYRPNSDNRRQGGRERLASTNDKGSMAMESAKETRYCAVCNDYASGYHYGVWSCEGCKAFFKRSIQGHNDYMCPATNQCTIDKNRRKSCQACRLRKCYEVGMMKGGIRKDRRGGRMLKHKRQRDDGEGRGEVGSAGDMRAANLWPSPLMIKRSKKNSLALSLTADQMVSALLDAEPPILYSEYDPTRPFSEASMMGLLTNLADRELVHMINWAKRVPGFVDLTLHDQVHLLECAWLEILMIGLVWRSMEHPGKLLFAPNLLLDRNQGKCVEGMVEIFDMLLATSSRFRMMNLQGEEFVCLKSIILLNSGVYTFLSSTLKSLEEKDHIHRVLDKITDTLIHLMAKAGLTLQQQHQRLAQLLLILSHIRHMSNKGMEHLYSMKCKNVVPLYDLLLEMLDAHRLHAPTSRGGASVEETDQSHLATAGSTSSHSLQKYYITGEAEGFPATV

MDA-MB-231 cell lines = experiment: MTT antiproliferative assay; type: cell-based, human; conditions: Homo sapiens, MDA-MB-231; growth inhibition, 48 h; read-out: MDA-MB-231 (IC50 nM)
MCF-7 cells = experiment: Cell cycle distribution by flow cytometry; type: cell-based, human; conditions: 24 h
[8] = Lipophilicity by shake-flask method; conditions: pH 7.4
[9] = test system: progesterone receptor (PR); experiment: ERα functional antagonism cell assay (PR as biomarker) in MCF-7; type: cell-based; conditions: Homo sapiens, MCF7; progesterone receptor as biomarker for ERα antagonism in MCF-7
[10] = Pharmacokinetics study, oral bioavailability; conditions: rat
[11] = dose 50 mg/kg (compounds per os after MNU; MNU alone i.p.)

## CC(=O)c1cc(C(=O)O[C@@H]2/C=C/C(=O)O[C@@H](O)CCC/C=C/[C@@H]3C[C@H](O)C[C@H]32)ccc1OCCN(C)C [Compound 3DPQ-2, (1R,2E,6R,10E,11aS,13S,14aR)-6,13-dihydroxy-4-oxo-4,6,7,8,9,11a,12,13,14,14a-decahydro-1H-cyclopenta[f][1]oxacyclotridecin-1-yl 3-acetyl-4-(2-(dimethylamino)ethoxy)benzoate]
[1]; dose 5 mg/kg
  CAT: 15.54±0.51
  TBARS: 0.56 nmol/mg
  GSH: 9.96 mg/g
  SOD (U/mg): 9.63±0.56 U/mg
[1]; dose 50 mg/kg
  CAT: 17.31±0.63
  TBARS: 0.75 nmol/mg
  GSH: 10.35 mg/g
  SOD (U/mg): 12.3±0.36 U/mg
  TP: 41.54 g/L
[2]
  fraction unbound at 5 mg/kg bwt: 0.0115
  fraction unbound at 50 mg/kg bwt: 0.0124
[3]; higher concentration (1 nM)
  p53 promoter activity, fold higher than the one provoked by Ral: 0.66 fold
[3]; lower concentration (0.1 nM)
  p53 promoter activity, fold higher than the one provoked by Ral: 0.733 fold
[4]
  IC50: 0.99 ± 0.35 nM
[5]
  WL after MFD (day 1, mg): 305.03 ± 0.66 mg
MCF-7 cell lines
  IC50: 0.73 ± 0.42 nM
  MCF-7 antiproliferative potency, fold higher than Ral: 1.21 fold
  SI: 99.20 ^‡,§
[6]
  IC50 at 48 h: > 100 nM
[7]; dose 5 mg/kg per os after MNU
  Tumor Burden (week): 3.34 ± 0.57 *^,†,‖ week
  Tumor Latency (week): 9 * week
  Tumor Volume (mm^3): 0.96 ± 0.41 *^,†,‡,‖ mm^3
[7]; [11]
  Tumor Burden (week): 1.98 ± 0.45 *^,†,§,┴ week
  Tumor Latency (week): 12 *^,† week
  Tumor Volume (mm^3): 0.69 ± 0.23 *^,†,§,┴ mm^3
ERα
  IC50: > 100 nM
MDA-MB-231 cell lines
  IC50: 72.42 ± 0.47 nM
MCF-7 cells; 0.1 nM
  Cell Cycle (%) G0/G1: 73.64 ± 5.32 *^,†,‡,§ %
  Cell Cycle (%) G2/M: 14.48 ± 2.54 *^,†,‡,§ %
  Cell Cycle (%) S: 11.88 ± 0.87 *^,†,‡,§ %
MCF-7 cells; 1 nM
  Cell Cycle (%) G0/G1: 76.10 ± 1.43 *^,†,‡,§ %
  Cell Cycle (%) G2/M: 11.32 ± 3.25 *^,†,‡,§ %
  Cell Cycle (%) S: 12.59 ± 1.57 *^,†,‡,§ %
[8]
  logD at 30 min: 1.99
[9]
  IC50: > 100 nM
[10]; oral 5 mg/kg
  BIO: 92
[10]; oral 50 mg/kg
  BIO: 94

## CNCCOc1ccc(C(=O)O[C@@H]2/C=C/C(=O)O[C@@H](O)CCC/C=C/[C@@H]3C[C@H](O)C[C@H]32)cc1C(C)=O [Compound 3DPQ-1, (1R,2E,6R,10E,11aS,13S,14aR)-6,13-dihydroxy-4-oxo-4,6,7,8,9,11a,12,13,14,14a-decahydro-1H-cyclopenta[f][1]oxacyclotridecin-1-yl 3-acetyl-4-(2-(methylamino)ethoxy)benzoate]
[1]; dose 5 mg/kg
  CAT: 16.21±0.77
  TBARS: 0.96 nmol/mg
  SOD (U/mg): 7.65±0.63 U/mg
[1]; dose 50 mg/kg
  CAT: 17.35±0.56
  TBARS: 0.65 nmol/mg
  GSH: 9.35 ± 0.45 mg/g
  SOD (U/mg): 8.83±0.51 U/mg
  TP: 37.21 g/L
[2]
  fraction unbound at 5 mg/kg bwt: 0.0133
  fraction unbound at 50 mg/kg bwt: 0.0122
[3]; higher concentration (1 nM)
  p53 promoter activity, fold higher than the one provoked by Ral: 0.66 fold
[3]; lower concentration (0.1 nM)
  p53 promoter activity, fold higher than the one provoked by Ral: 0.733 fold
[4]
  IC50: 0.94 ± 0.36 nM
[5]
  WL after MFD (day 1, mg): 310.34 ± 0.34 ^i mg
MCF-7 cell lines
  IC50: 0.76 ± 0.24 nM
  MCF-7 antiproliferative potency, fold higher than Ral: 1.17 fold
  SI: 95.31 ^‡,§
[6]
  IC50 at 48 h: > 100 nM
[7]; dose 5 mg/kg per os after MNU
  Tumor Burden (week): 3.38 ± 0.31 ^i,*^,†,‖ week
  Tumor Latency (week): 9 * week
  Tumor Volume (mm^3): 1.09 ± 0.23 *^,†,‡,‖ mm^3
[7]; [11]
  Tumor Burden (week): 2.04 ± 0.35 *^,†,§,┴ week
  Tumor Latency (week): 12 *^,† week
  Tumor Volume (mm^3): 0.68 ± 0.35 *^,†,§,┴ mm^3
ERα
  IC50: > 100 nM
MDA-MB-231 cell lines
  IC50: 72.44 ± 0.32 nM
MCF-7 cells; 0.1 nM
  Cell Cycle (%) G0/G1: 72.62 ± 2.47 *^,†,‡,§ %
  Cell Cycle (%) G2/M: 17.40 ± 3.63 *^,†,‡,§ %
  Cell Cycle (%) S: 9.98 ± 1.65 *^,†,‡,§ %
MCF-7 cells; 1 nM
  Cell Cycle (%) G0/G1: 75.08 ± 2.13 *^,†,‡,§ %
  Cell Cycle (%) G2/M: 14.24 ± 2.54 *^,†,‡,§ %
  Cell Cycle (%) S: 10.69 ± 1.42 *^,†,‡,§ %
[8]
  logD at 30 min: 1.94
[9]
  IC50: > 100 nM
[10]; oral 5 mg/kg
  BIO: 91
[10]; oral 50 mg/kg
  BIO: 94

## CC(=O)c1cc(C(=O)O[C@@H]2/C=C/C(=O)O[C@@H](O)CCC/C=C/[C@@H]3C[C@H](O)C[C@H]32)ccc1OCCN1CCCC(O)C1=O (stereo partly drawn) [Compound 3DPQ-12, (1R,2E,6R,10E,11aS,13S,14aR)-6,13-dihydroxy-4-oxo-4,6,7,8,9,11a,12,13,14,14a-decahydro-1H-cyclopenta[f][1]oxacyclotridecin-1-yl 3-acetyl-4-(2-(3-hydroxy-2-oxopiperidin-1-yl)ethoxy)benzoate]
[1]; dose 5 mg/kg
  CAT: 14.55±0.51
  TBARS: 0.92 nmol/mg
  GSH: 8.96 mg/g
  SOD (U/mg): 5.43±0.25 U/mg
  TP: 336.12 g/L
[1]; dose 50 mg/kg
  CAT: 19.46±0.75
  TBARS: 1.05 nmol/mg
  GSH: 9.02 mg/g
  SOD (U/mg): 13.32±0.43 U/mg
  TP: 389.35 g/L
[2]
  fraction unbound at 5 mg/kg bwt: 0.0124
  fraction unbound at 50 mg/kg bwt: 0.0131
[3]; higher concentration (1 nM)
  p53 promoter activity, fold higher than the one provoked by Ral: 0.55 fold
[3]; lower concentration (0.1 nM)
  p53 promoter activity, fold higher than the one provoked by Ral: 0.65 fold
[4]
  IC50: 0.77 ± 0.43 nM
[5]
  WL after MFD (day 1, mg): 305.06 ± 0.94 mg
MCF-7 cell lines
  IC50: 0.56 ± 0.11 nM
[6]
  IC50 at 48 h: > 100 nM
[7]; dose 5 mg/kg per os after MNU
  Tumor Burden (week): 2.24 ± 0.54 *^,†,‡,‖ week
  Tumor Latency (week): 12 *^,†,‡ week
  Tumor Volume (mm^3): 0.67 ± 0.22 *^,†,‡,‖ mm^3
[7]; [11]
  Tumor Burden (week): 0.94 ± 0.35 *^,†,§,┴ week
  Tumor Latency (week): 15 *^,†,§ week
  Tumor Volume (mm^3): 0.34 ± 0.11 *^,†,§,┴ mm^3
ERα
  IC50: > 100 nM
MDA-MB-231 cell lines
  IC50: 82.84 ± 0.61 nM
MCF-7 cells; 0.1 nM
  Cell Cycle (%) G0/G1: 77.83 ± 0.92 *^,†,‡,§ %
  Cell Cycle (%) G2/M: 5.21 ± 2.54 *^,†,‡,§ %
  Cell Cycle (%) S: 16.96 ± 1.23 *^,†,‡,§ %
MCF-7 cells; 1 nM
  Cell Cycle (%) G0/G1: 80.29 ± 1.24 *^,†,‡,§ %
  Cell Cycle (%) G2/M: 2.05 ± 1.43 *^,†,‡,§ %
  Cell Cycle (%) S: 17.67 ± 1.32 *^,†,‡,§ %
[8]
  logD at 30 min: 2.06
[9]
  IC50: > 100 nM
[10]; oral 5 mg/kg
  BIO: 93 ^‡
[10]; oral 50 mg/kg
  BIO: 96
